Measurements as given in patent US6579855B1, “Adenovirus-mediated gene therapy” (priority 1998, dated 2003).

Experiment: Clinical safety of gene transfer and GCV treatment (adverse effects, routine laboratory measurements)
Format: in vivo, human
Conditions: GCV 5 mg/kg/d intravenously, 14 days; only one patient, without symptoms
Procedure: All patients underwent craniotomy and tumour resection. The resection was as radical as possible under the microscope. The diagnosis of malignant glioma was confirmed by frozen sections at the time of the operation. After tumour resection, HSVtk retrovirus packaging cells (10^9 cells/10 ml) or adenoviruses (3×10^10 pfu/10 ml) were injected into the wall of the tumour cavity in 0.1-0.3 ml quantities, 10 mm deep, with 30-70 injections/patient. GCV treatment (5 mg/kg/d) was delivered intravenously through the subclavian vein twice a day for 14 days. The medication started 14 days or 5 days after the tumour resection and gene transfer in retrovirus or adenovirus patients, respectively. β-galactosidase gene was transferred to seven control group patients via a catheter which was stereotactically inserted into the tumour. The catheter was left in place until the tumour was resected in craniotomy. […]
Blood and urine samples were analyzed using routine methods before gene transfer, on the first postoperative day and weekly during hospitalization except for leucocyte differential count which was measured every second day during GCV medication. Anti-virus antibodies were measured before and two weeks after the gene transfer. […]

Nc1nc(O)c2ncn(COC(CO)CO)c2n1 [GCV, ganciclovir]
leukopenia during GCV treatment: mild and reversible leukopenia
